ChEMBL document CHEMBL4190365, “Synthesis and antiproliferative properties of new hydrophilic esters of triterpenic acids” (Eur J Med Chem, 2017)
Active and inactive are the calls of the source. The rule behind the calls is not given here.

Tests used:
CCRF-CEM = assay: Cytotoxicity in human CEM cells assessed as reduction in cell viability incubated for 72 hrs by calcein AM cytotoxicity assay; type: functional, cell-based
MCF7 = assay: Cytotoxicity in human MCF7 cells assessed as reduction in cell viability incubated for 72 hrs by calcein AM cytotoxicity assay; type: functional, cell-based; details: Homo sapiens, MCF7, 72 h
HeLa = assay: Cytotoxicity in human HeLa cells assessed as reduction in cell viability incubated for 72 hrs by calcein AM cytotoxicity assay; type: functional, cell-based; details: Homo sapiens, HeLa, 72 h
G-361 [1] = assay: Cytotoxicity in human G361 cells assessed as reduction in cell viability incubated for 72 hrs by calcein AM cytotoxicity assay; type: functional, cell-based; details: Homo sapiens, G-361, 72 h
BJ = assay: Cytotoxicity in human BJ cells assessed as reduction in cell viability incubated for 72 hrs by calcein AM cytotoxicity assay; type: functional, cell-based; details: Homo sapiens, BJ, 72 h
G-361 [2] = assay: Induction of apoptosis in human G361 cells assessed as increase in caspase3/7 activity at 10 uM using Ac-DEVD-AMC substrate incubated for 24 hrs by fluorometric assay relative to untreated control; type: functional
G-361 [3] = assay: Induction of cell cycle arrest in human G361 cells assessed as increase in accumulation at subG1 phase at 1 uM incubated for 24 hrs by propidium iodide staining based flow cytometry; type: functional
G-361 [4] = assay: Induction of cell cycle arrest in human G361 cells assessed as increase in accumulation at subG1 phase at 10 uM incubated for 24 hrs by propidium iodide staining based flow cytometry; type: functional
G-361 [5] = assay: Induction of cell cycle arrest in human G361 cells assessed as increase in accumulation at G0/G1 phase at 1 uM incubated for 24 hrs by propidium iodide staining based flow cytometry; type: functional
G-361 [6] = assay: Induction of cell cycle arrest in human G361 cells assessed as increase in accumulation at G0/G1 phase at 10 uM incubated for 24 hrs by propidium iodide staining based flow cytometry; type: functional
G-361 [7] = assay: Induction of cell cycle arrest in human G361 cells assessed as reduction in accumulation at G2M phase at 1 uM incubated for 24 hrs by propidium iodide staining based flow cytometry; type: functional
G-361 [8] = assay: Induction of cell cycle arrest in human G361 cells assessed as reduction in accumulation at G2M phase at 10 uM incubated for 24 hrs by propidium iodide staining based flow cytometry; type: functional
G-361 [9] = assay: Induction of apoptosis in human G361 cells assessed as induction of caspase-3 expression at 1 uM incubated for 24 hrs by Western blot method; type: functional, cell-based
G-361 [10] = assay: Induction of apoptosis in human G361 cells assessed as induction of caspase-3 expression at 10 uM incubated for 24 hrs by Western blot method; type: functional, cell-based
G-361 [11] = assay: Induction of apoptosis in human G361 cells assessed as induction of PARP cleavage at 10 uM incubated for 24 hrs by Western blot method; type: functional, cell-based
G-361 [12] = assay: Induction of apoptosis in human G361 cells assessed as reduction total Rb protein levels at 10 uM incubated for 24 hrs by Western blot method; type: functional, cell-based
G-361 [13] = assay: Induction of apoptosis in human G361 cells assessed as effect on Bcl2 protein levels at 10 uM incubated for 24 hrs by Western blot method; type: functional, cell-based
G-361 [14] = assay: Induction of apoptosis in human G361 cells assessed as effect on Bcl2 protein levels at 1 uM incubated for 24 hrs by Western blot method; type: functional, cell-based
G-361 [15] = assay: Induction of apoptosis in human G361 cells assessed as reduction Mcl1 protein levels at 10 uM incubated for 24 hrs by Western blot method; type: functional, cell-based
G-361 [16] = assay: Induction of apoptosis in human G361 cells assessed as reduction Mcl1 protein levels at 1 uM incubated for 24 hrs by Western blot method; type: functional, cell-based

Compound `CC(=O)O[C@H]1CC[C@]2(C)[C@H]3CC[C@@H]4C5=C(C(C)C)C(=O)C[C@]5(C(=O)OCCN5CCCCC5)CC[C@@]4(C)[C@]3(C)CC[C@H]2C1(C)C` [listing 1 of 2 here] has an IC50 (CCRF-CEM; ccrf-cem) of 16.2 µM, an IC50 (MCF7) of 7 µM and an IC50 (HeLa) of 8.7 µM. For the same compound, the IC50 (G-361 [1]) was 7 µM, the IC50 (BJ) was 49.1 µM and the “fold change (FC)” value (G-361 [2]) was “<=4”.

`CC(=O)O[C@H]1CC[C@]2(C)[C@H]3CC[C@@H]4C5=C(C(C)C)C(=O)C[C@]5(C(=O)OCCN5CCCCC5)CC[C@@]4(C)[C@]3(C)CC[C@H]2C1(C)C` [listing 2 of 2 here] was tested, and the Activity (G-361 [3]) was “Active”, the Activity (G-361 [4]) was “Active” and the Activity (G-361 [5]) was “Active”. The Activity (G-361 [6]) was “Active”, the Activity (G-361 [7]) was “Active” and the Activity (G-361 [8]) was “Active”. For the same compound, the Activity (G-361 [9]) was “inactive”, the Activity (G-361 [10]) was “inactive” and the Activity (G-361 [11]) was “Active”. For the same compound, the Activity (G-361 [12]) was “Active”, the Activity (G-361 [13]) was “inactive” and the Activity (G-361 [14]) was “inactive”. For the same compound, the Activity (G-361 [15]) was “Active” and the Activity (G-361 [16]) was “Active”.

With `CC(=O)OC[C@H]1O[C@@H](OC(=O)[C@]2(COC(C)=O)CC[C@]3(C)[C@H](CC[C@@H]4[C@@]5(C)CC[C@H](OC(C)=O)C(C)(C)[C@@H]5CC[C@]43C)[C@@H]2O)[C@H](OC(C)=O)[C@@H](OC(C)=O)[C@H]1OC(C)=O` the IC50 (CCRF-CEM; Homo sapiens, CCRF-CEM, 72 h) was greater than 50 µM, the IC50 (MCF7) was greater than 50 µM and the IC50 (HeLa) was greater than 50 µM. The IC50 (G-361 [1]) was greater than 50 µM and the IC50 (BJ) was greater than 50 µM.

`CC(=O)O[C@H]1CC[C@]2(C)[C@H]3CC[C@@H]4C5=C(C(C)C)C(=O)C[C@]5(C(=O)O[C@@H]5O[C@H](CO)[C@H](O)[C@H](O)[C@H]5O)CC[C@@]4(C)[C@]3(C)CC[C@H]2C1(C)C` was tested, and the IC50 (CCRF-CEM; Homo sapiens, CCRF-CEM, 72 h) was 18.8 µM, the IC50 (MCF7) was 37 µM and the IC50 (HeLa) was 38.8 µM. For the same compound, the IC50 (G-361 [1]) was 42.7 µM and the IC50 (BJ) was 48.2 µM.

`CC(=O)OC[C@H]1O[C@@H](OC(=O)[C@]23CC[C@@H](C(C)C)[C@@H]2[C@H]2CC[C@@H]4[C@@]5(C)CC[C@H](O)C(C)(C)[C@@H]5CC[C@@]4(C)[C@]2(C)CC3)[C@H](OC(C)=O)[C@@H](OC(C)=O)[C@H]1OC(C)=O` was tested, and the IC50 (CCRF-CEM; Homo sapiens, CCRF-CEM, 72 h) was 8.6 µM, the IC50 (MCF7) was 2.8 µM and the IC50 (HeLa) was 5.1 µM. For the same compound, the IC50 (G-361 [1]) was 4.7 µM and the IC50 (BJ) was greater than 50 µM.

Work on `CC(C)[C@@H]1CC[C@]2(C(=O)OCC(=O)OCc3ccccc3)CC[C@]3(C)[C@H](CC[C@@H]4[C@@]5(C)CC[C@H](O)C(C)(C)[C@@H]5CC[C@]43C)[C@@H]12` yielded an IC50 (CCRF-CEM; Homo sapiens, CCRF-CEM, 72 h) of 24.1 µM, an IC50 (MCF7) greater than 50 µM and an IC50 (HeLa) greater than 50 µM. It also gave an IC50 (G-361 [1]) greater than 50 µM and an IC50 (BJ) greater than 50 µM.

`C=C(C=O)[C@@H]1CC[C@]2(C(=O)OCCN3CCOCC3)CC[C@]3(C)[C@H](CC[C@@H]4[C@@]5(C)CC[C@H](O)C(C)(C)[C@@H]5CC[C@]43C)[C@@H]12` gave an IC50 (CCRF-CEM; Homo sapiens, CCRF-CEM, 72 h) of 3.8 µM, an IC50 (MCF7) of 2.2 µM and an IC50 (HeLa) of 11 µM. It also gave an IC50 (G-361 [1]) of 5.3 µM and an IC50 (BJ) of 19.2 µM.

`C=C(C)[C@@H]1CC[C@]2(C(=O)O[C@@H]3O[C@H](COC(C)=O)[C@@H](OC(C)=O)[C@H](OC(C)=O)[C@H]3OC(C)=O)CC[C@]3(C)[C@H](CC[C@@H]4[C@@]5(C)CC[C@H](O)C(C)(C)[C@@H]5CC[C@]43C)[C@@H]12` showed an IC50 (CCRF-CEM; Homo sapiens, CCRF-CEM, 72 h) greater than 50 µM, an IC50 (MCF7) greater than 50 µM and an IC50 (HeLa) greater than 50 µM. It also gave an IC50 (G-361 [1]) greater than 50 µM and an IC50 (BJ) greater than 50 µM.

Work on `CC(C)[C@@H]1CC[C@]2(C(=O)OCCN3CCCC3)CC[C@]3(C)[C@H](CC[C@@H]4[C@@]5(C)CC[C@H](O)C(C)(C)[C@@H]5CC[C@]43C)[C@@H]12` yielded an IC50 (CCRF-CEM; Homo sapiens, CCRF-CEM, 72 h) of 2.8 µM, an IC50 (MCF7) of 10.3 µM and an IC50 (HeLa) of 7.7 µM. The IC50 (G-361 [1]) was 8.2 µM and the IC50 (BJ) was 17 µM.

For `C=C(C)[C@@H]1CC[C@]2(C(=O)OCC(=O)OCc3ccccc3)CC[C@]3(C)[C@H](CC[C@@H]4[C@@]5(C)CC[C@H](O)C(C)(C)[C@@H]5CC[C@]43C)[C@@H]12`, the IC50 (CCRF-CEM; Homo sapiens, CCRF-CEM, 72 h) was 21.9 µM, the IC50 (MCF7) was greater than 50 µM and the IC50 (HeLa) was greater than 50 µM. For the same compound, the IC50 (G-361 [1]) was 22.2 µM and the IC50 (BJ) was greater than 50 µM.
